Source: US9399032B2, “Methods and compositions for treating degenerative and ischemic disorders” (The General Hospital Corporation, priority 2009, dated 2016)

Key:
[1] = test system: MCH58 fibroblasts; settings: 72 h, 10 µM
[2] = test system: STHdhQ111/111 striatal cells; test: Viability of mutant huntingtin striatal cells after serum withdrawal (CellTiter-Glo); type: cell-based, murine; settings: serum free media, 24 hours
Protocol: Wherever indicated, mutant (STHdh^Q111/111) striatal cells were grown in serum free media for ˜24 hours before ATP measurement. Luminescence was measured in DTX880 multimode detector. Multiple concentrations (between 100 μM and 0.5 μM) of rotenone, antimycin, oligomycin, meclizine, hydroxyzine (Spectrum chemical), thiethylperazine (Prestwick), cyproheptadine (Sigma), pyrilamine (Spectrum chemical), tripelennamine (Spectrum chemical), diphenhydramine (Spectrum chemical), clemastine (Prestwick), bromopheniramine (Spectrum chemical), pheniramine (Spectrum chemical), promethazine (MSDiscovery 01500510), atropine (Sigma), and scopolamine (Sigma) were tested for their protective effect on STHdh^Q111/111 cells in serum free media. The dose which conferred maximum protection is shown. Luminescence was measured in DTX880 multimode detector.
Although it is not necessary to understand the mechanism of an invention, it is believed that the observed cell survival may be due to suppressed apoptosis based on caspase 3 and 7 cleavage. Improved cell viability was confirmed by microscopy.

[3] = test system: C. elegans expressing 128Q huntingtin fragment in touch receptor neurons; settings: even lower doses; cited from earlier work

| SMILES | Sglu/gal (log10 fold change) Score [1] | protection of STHdhQ111/111 cells after serum withdrawal [2] | toxicity in worms (Varma et al.) [3] |
| --- | --- | --- | --- |
| COc1ccc2c(c1)O[C@@H]1COc3cc(OC)c(OC)cc3[C@@H]1C2=O [Mundoserone] | 0.57 | – | – |
| C=C(C)[C@H]1Cc2c(ccc3c2O[C@@H]2COc4cc(OC)c(OC)cc4[C@@H]2C3=O)O1 [rotenone] | – | rescue | strong developmental delay with severe toxicity |
